Assay results: publication PMC8617627, “Novel DYRK1A Inhibitor Rescues Learning and Memory Deficits in a Mouse Model of Down Syndrome” (Pharmaceuticals, 2021)
Where two headings read alike, the source gives them in different places.

Experiments:
Test in all cases: Kinase profile (33P ATP filter binding)
Type in all cases: biochemical
[1] = target: T1, EPH-B2 (Homo sapiens, UniProt P29323)
T1 sequence (P29323 19-1055): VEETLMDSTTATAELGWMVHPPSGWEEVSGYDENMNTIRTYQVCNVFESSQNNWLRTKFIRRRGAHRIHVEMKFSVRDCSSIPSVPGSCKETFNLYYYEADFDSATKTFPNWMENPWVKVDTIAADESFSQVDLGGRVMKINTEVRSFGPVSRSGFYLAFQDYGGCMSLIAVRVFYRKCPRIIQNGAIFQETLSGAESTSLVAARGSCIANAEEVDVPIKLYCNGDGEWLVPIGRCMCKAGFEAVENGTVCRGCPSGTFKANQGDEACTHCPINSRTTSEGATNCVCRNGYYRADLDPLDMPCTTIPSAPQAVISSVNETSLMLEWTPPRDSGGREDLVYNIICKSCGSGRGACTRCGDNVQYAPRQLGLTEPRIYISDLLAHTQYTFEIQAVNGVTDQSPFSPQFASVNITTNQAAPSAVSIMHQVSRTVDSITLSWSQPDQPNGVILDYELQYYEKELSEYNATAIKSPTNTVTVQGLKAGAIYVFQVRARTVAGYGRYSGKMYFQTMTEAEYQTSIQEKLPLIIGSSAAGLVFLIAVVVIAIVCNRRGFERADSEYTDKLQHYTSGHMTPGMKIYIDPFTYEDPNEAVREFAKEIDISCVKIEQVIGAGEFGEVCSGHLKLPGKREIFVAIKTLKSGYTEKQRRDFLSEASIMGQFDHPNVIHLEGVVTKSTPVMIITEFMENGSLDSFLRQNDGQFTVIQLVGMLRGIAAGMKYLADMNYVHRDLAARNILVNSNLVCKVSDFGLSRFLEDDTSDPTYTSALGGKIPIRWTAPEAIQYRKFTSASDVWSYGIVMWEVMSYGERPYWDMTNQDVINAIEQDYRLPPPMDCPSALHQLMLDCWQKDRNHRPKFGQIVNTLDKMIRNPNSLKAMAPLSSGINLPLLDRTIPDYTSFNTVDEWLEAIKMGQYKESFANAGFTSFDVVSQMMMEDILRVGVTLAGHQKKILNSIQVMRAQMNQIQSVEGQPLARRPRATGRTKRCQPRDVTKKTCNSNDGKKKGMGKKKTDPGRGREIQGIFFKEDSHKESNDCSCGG

[2] = target: MLK3 (Homo sapiens, UniProt Q16584)
[3] = target: T2, ULK1 (Homo sapiens, UniProt O75385)
T2 sequence (O75385 1-1050): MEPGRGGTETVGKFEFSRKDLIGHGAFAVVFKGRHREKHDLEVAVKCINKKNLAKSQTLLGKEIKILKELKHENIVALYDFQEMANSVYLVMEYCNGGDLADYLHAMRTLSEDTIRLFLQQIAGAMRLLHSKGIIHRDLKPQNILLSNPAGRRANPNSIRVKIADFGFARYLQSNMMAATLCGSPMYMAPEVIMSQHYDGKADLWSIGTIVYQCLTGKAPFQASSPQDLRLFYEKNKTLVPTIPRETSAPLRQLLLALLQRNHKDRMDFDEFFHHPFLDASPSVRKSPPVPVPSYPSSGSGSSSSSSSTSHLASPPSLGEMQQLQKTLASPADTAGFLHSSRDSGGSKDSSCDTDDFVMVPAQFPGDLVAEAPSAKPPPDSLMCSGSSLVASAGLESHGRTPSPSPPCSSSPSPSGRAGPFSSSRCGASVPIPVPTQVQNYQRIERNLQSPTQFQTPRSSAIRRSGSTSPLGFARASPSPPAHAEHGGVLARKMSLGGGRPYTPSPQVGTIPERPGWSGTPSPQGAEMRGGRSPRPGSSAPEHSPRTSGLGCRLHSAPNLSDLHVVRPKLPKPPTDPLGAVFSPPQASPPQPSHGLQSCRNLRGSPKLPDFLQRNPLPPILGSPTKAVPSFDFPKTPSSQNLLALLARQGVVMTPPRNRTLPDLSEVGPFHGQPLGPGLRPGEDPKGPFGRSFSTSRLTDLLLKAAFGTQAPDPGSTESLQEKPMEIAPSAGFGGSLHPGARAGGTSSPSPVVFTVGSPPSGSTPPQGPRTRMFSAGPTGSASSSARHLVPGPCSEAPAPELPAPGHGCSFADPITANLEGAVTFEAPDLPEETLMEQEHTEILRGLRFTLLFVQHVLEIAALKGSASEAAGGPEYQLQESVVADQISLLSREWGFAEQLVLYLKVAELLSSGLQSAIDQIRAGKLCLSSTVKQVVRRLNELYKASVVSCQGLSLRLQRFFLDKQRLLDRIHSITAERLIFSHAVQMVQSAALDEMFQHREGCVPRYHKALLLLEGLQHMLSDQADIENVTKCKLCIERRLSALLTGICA

[4] = target: MNK2 (Homo sapiens, UniProt Q9HBH9); settings: read-out: Remaining protein kinase activity
[5] = target: Aurora B (Homo sapiens, UniProt Q96GD4); settings: read-out: Remaining protein kinase activity
[6] = target: S6K1 (Homo sapiens, UniProt P23443); settings: read-out: Remaining protein kinase activity
[7] = target: HIPK2 (Homo sapiens, UniProt Q9H2X6); settings: read-out: Remaining protein kinase activity
[8] = target: MPSK1 (Homo sapiens, UniProt O75716); settings: read-out: Remaining protein kinase activity
[9] = target: PAK2 (Homo sapiens, UniProt Q13177); settings: read-out: Remaining protein kinase activity
Sequence of PAK2 (Q13177 whole entry): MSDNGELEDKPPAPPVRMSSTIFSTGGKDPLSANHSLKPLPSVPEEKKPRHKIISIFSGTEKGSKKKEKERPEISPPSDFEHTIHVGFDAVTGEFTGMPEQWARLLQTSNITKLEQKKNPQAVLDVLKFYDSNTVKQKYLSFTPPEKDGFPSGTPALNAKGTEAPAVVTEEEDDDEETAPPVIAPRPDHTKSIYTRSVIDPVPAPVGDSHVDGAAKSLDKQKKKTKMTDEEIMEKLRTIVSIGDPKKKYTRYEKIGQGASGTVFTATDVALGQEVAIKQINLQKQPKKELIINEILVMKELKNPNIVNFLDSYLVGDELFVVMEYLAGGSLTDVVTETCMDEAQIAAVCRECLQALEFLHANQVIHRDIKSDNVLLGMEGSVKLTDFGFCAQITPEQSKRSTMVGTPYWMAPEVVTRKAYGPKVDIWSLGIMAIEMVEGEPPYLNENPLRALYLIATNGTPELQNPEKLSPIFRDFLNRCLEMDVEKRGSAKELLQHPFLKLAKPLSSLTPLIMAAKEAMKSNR

Sequence of Aurora B (Q96GD4 whole entry): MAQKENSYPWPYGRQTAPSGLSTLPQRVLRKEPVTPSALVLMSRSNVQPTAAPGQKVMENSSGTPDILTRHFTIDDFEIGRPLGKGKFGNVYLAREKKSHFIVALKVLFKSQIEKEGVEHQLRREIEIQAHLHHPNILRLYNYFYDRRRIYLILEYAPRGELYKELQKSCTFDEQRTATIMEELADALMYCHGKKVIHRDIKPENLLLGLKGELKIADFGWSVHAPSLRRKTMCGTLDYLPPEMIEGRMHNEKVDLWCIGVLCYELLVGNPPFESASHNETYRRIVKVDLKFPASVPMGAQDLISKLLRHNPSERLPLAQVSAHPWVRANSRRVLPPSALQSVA
Sequence of MPSK1 (O75716 whole entry): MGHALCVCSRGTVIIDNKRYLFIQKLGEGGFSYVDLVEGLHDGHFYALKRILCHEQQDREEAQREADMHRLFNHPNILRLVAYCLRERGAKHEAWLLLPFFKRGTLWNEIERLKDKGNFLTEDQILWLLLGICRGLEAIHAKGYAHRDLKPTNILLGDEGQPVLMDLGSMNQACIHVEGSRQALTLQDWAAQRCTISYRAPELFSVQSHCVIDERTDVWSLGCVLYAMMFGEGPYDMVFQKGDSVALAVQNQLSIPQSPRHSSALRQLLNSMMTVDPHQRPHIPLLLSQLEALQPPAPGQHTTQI
Sequence of HIPK2 (Q9H2X6 whole entry): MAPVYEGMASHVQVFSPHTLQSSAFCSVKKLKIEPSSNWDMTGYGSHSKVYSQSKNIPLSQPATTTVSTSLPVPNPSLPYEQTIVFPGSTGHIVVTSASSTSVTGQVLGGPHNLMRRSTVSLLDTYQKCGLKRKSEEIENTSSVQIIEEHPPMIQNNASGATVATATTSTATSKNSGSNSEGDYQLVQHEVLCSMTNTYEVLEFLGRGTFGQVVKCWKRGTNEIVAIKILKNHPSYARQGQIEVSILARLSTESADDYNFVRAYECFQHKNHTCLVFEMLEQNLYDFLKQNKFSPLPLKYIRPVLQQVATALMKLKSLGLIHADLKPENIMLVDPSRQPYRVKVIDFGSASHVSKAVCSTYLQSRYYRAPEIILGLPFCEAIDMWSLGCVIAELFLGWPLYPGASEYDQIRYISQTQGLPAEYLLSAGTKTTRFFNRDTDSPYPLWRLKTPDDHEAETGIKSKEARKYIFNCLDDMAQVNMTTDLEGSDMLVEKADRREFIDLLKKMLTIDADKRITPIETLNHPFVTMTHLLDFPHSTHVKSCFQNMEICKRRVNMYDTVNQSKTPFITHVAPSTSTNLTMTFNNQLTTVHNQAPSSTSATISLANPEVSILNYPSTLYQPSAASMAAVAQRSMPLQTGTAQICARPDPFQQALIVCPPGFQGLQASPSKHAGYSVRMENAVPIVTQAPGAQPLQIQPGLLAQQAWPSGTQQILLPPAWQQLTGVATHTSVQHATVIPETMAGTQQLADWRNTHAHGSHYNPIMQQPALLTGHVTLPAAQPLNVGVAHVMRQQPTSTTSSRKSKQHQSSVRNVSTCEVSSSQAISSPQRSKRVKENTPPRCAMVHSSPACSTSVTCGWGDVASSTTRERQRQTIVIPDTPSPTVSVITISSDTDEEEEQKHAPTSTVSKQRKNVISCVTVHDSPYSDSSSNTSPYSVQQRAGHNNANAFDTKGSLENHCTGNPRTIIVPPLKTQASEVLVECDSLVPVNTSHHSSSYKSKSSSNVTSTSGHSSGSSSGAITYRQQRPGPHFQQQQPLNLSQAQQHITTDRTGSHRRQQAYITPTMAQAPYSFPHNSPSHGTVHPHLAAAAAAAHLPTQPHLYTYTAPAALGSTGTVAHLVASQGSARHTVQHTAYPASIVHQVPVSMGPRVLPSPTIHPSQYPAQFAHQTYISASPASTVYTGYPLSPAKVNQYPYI
Sequence of MLK3 (Q16584 whole entry): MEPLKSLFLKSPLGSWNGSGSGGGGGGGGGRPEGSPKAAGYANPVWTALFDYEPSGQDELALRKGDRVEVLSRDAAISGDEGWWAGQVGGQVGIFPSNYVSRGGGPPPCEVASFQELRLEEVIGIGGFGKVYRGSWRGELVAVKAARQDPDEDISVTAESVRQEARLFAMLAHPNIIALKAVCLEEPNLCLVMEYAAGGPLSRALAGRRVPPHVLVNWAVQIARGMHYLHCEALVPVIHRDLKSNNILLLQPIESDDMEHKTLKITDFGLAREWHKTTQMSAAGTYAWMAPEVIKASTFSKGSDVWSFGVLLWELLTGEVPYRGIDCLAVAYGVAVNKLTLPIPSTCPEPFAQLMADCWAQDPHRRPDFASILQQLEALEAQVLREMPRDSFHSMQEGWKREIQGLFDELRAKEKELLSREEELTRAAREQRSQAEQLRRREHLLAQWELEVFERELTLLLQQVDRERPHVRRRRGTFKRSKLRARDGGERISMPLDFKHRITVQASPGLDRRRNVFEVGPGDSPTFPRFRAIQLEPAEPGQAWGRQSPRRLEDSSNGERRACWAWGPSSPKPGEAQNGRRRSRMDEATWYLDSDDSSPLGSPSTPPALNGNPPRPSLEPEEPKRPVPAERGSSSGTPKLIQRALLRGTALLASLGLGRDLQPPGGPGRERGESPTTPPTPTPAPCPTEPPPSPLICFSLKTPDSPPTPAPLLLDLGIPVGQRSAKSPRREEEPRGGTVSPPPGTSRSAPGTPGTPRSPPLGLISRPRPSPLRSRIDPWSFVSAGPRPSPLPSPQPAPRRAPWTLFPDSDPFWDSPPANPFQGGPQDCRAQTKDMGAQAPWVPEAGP
Sequence of S6K1 (P23443 whole entry, species assumed): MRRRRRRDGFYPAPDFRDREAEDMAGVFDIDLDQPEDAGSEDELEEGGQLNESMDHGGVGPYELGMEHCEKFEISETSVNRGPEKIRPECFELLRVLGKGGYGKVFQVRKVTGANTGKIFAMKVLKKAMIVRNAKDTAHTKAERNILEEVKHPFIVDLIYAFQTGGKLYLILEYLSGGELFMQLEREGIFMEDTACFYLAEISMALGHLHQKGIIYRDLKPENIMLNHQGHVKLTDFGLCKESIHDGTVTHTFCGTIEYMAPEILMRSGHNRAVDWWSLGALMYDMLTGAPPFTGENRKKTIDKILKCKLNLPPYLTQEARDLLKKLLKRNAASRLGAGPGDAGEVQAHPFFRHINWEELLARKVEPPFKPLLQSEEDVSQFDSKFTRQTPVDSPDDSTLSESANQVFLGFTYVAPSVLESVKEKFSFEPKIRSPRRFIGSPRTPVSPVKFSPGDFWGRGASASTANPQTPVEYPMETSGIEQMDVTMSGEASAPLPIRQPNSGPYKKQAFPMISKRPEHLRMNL
Sequence of MNK2 (Q9HBH9 whole entry): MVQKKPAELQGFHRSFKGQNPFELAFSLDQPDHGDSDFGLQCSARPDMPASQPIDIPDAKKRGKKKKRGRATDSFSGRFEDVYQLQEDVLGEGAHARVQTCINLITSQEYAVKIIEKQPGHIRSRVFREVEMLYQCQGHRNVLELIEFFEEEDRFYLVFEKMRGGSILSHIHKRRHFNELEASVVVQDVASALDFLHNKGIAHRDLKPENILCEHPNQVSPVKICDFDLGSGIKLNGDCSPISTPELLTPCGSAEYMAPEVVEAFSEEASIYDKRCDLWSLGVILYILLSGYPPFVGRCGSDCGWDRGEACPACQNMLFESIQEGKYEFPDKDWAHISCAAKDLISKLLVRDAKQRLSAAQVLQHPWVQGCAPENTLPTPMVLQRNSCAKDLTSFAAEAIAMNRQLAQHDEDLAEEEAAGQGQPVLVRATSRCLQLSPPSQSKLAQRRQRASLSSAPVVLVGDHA

SMILES: COc1ccc2sc(-c3cncc(N)c3)nc2c1 [compound 1, 5-(5-Methoxybenzo[d]thiazol-2-yl)pyridin-3-amine]
- Remaining protein kinase activity ([1]; 1 μM): 136%
- Remaining protein kinase activity ([1]; 100 μM): 96%
- Remaining protein kinase activity ([2]; 1 μM): 101%
- Remaining protein kinase activity ([2]; 100 μM): 29%
- Remaining protein kinase activity ([3]; 1 μM): 116%
- Remaining protein kinase activity ([3]; 100 μM): 77%
- remaining activity at 1 µM ([4]; MNK2, 1 μM): 90%
- remaining activity at 100 µM ([4]; MNK2, 100 μM): 27%
- remaining activity at 1 µM ([5]; Aurora B, 1 μM): 107%
- remaining activity at 100 µM ([5]; Aurora B, 100 μM): 21%
- remaining activity at 1 µM ([6]; S6K1, 1 μM): 118%
- remaining activity at 100 µM ([6]; S6K1, 100 μM): 58%
- remaining activity at 1 µM ([7]; HIPK2, 1 μM): 79%
- remaining activity at 100 µM ([7]; HIPK2, 100 μM): 10%
- remaining activity at 1 µM ([8]; MPSK1, 1 μM): 110%
- remaining activity at 100 µM ([8]; MPSK1, 100 μM): 106%
- remaining activity at 1 µM ([9]; PAK2, 1 μM): 110%
- remaining activity at 100 µM ([9]; PAK2, 100 μM): 103%

SMILES: COc1ccc2sc(-c3cncc(NC(C)=O)c3)nc2c1 [PST-001, N-(5-(5-Methoxybenzo[d]thiazol-2-yl)pyridin-3-yl)acetamide]
- Remaining protein kinase activity ([1]; 1 μM): 137%
- Remaining protein kinase activity ([1]; 100 μM): 125%
- Remaining protein kinase activity ([2]; 1 μM): 109%
- Remaining protein kinase activity ([2]; 100 μM): 60%
- Remaining protein kinase activity ([3]; 1 μM): 129%
- Remaining protein kinase activity ([3]; 100 μM): 120%
- remaining activity at 1 µM [4]: 106%
- remaining activity at 100 µM [4]: 66%
- remaining activity at 1 µM [5]: 106%
- remaining activity at 100 µM [5]: 24%
- remaining activity at 1 µM [6]: 113%
- remaining activity at 100 µM [6]: 81%
- remaining activity at 1 µM [7]: 90%
- remaining activity at 100 µM [7]: 77%
- remaining activity at 1 µM [8]: 121%
- remaining activity at 100 µM [8]: 113%
- remaining activity at 1 µM [9]: 114%
- remaining activity at 100 µM [9]: 122%
